Values joined by “and” are separate entries in the source; they are usually repeats but may differ in a detail not shown here. Equal values may be shown once. Inconclusive results and toxic doses are left out.
System: CD2F1 mice, L1210 leukemia ip, survival T/C
Assay: NCI In Vivo Anticancer Drug Screen. Data for tumor model L1210 Leukemia (intraperitoneal) in CD2F1 (CDF1) mice
Conditions: endpoint: mean survival time, higher = longer survival
Procedure, shortened: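 Activity against a transplanted murine tumor was judged by comparing the compound group with a vehicle group. The outcome in the treated animals was divided by that in the controls.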

[1] = dose: 25.0 mg/kg/injection, schedule: Q01DX009 (ip), vehicle: saline with Tween-80
[2] = dose: 25.0 mg/kg/injection, schedule: Q04DX003 (ip), vehicle: saline with Tween-80
[3] = dose: 50.0 mg/kg/injection, schedule: Q01DX009 (ip), vehicle: saline with Tween-80
[4] = dose: 50.0 mg/kg/injection, schedule: Q04DX003 (ip), vehicle: saline with Tween-80
[5] = dose: 100.0 mg/kg/injection, schedule: Q04DX003 (ip), vehicle: saline with Tween-80

Compound: CCCC[N+](=O)[O-]
- T/C (dose: 100.0 mg/kg/injection, schedule: Q04DX003 (ip), vehicle: saline): 98 % of control
- T/C (dose: 200.0 mg/kg/injection, schedule: Q04DX003 (ip), vehicle: saline): 100 % of control
- T/C (dose: 400.0 mg/kg/injection, schedule: Q04DX003 (ip), vehicle: saline): 102 % of control

Compound: O=[N+]([O-])c1c(Br)sc(Br)c1[N+](=O)[O-]
- T/C (dose: 12.5 mg/kg/injection, schedule: Q01DX009 (ip), vehicle: saline with Tween-80): 97 % of control
- T/C (dose: 12.5 mg/kg/injection, schedule: Q04DX003 (ip), vehicle: saline with Tween-80): 101 % of control
- T/C [1]: 88 % of control
- T/C [2]: 103 % of control
- T/C [3]: 95 % of control
- T/C [4]: 109 % of control

Compound: Oc1ccc(C(c2ccc(O)cc2)C(Cl)(Cl)Cl)cc1
- T/C (dose: 100.0 mg/kg/injection, schedule: Q04DX003 (ip), vehicle: Klucel (hydroxypropylcellulose) (HPC)): 101 % of control
- T/C (dose: 200.0 mg/kg/injection, schedule: Q04DX003 (ip), vehicle: Klucel (hydroxypropylcellulose) (HPC)): 101 % of control
- T/C (dose: 400.0 mg/kg/injection, schedule: Q04DX003 (ip), vehicle: Klucel (hydroxypropylcellulose) (HPC)): 93 % of control

Compound: CC(=O)NC1=CC(=Nc2ccc(N(C)C)cc2)C=CC1=O
- T/C (dose: 1.25 mg/kg/injection, schedule: Q01DX009 (ip), vehicle: suspension in saline): 95 % of control and 97 % of control
- T/C (dose: 2.5 mg/kg/injection, schedule: Q01DX009 (ip), vehicle: suspension in saline): 95 % of control and 103 % of control
- T/C (dose: 5.0 mg/kg/injection, schedule: Q01DX009 (ip), vehicle: suspension in saline): 97 % of control and 101 % of control
- T/C (dose: 10.0 mg/kg/injection, schedule: Q01DX009 (ip), vehicle: suspension in saline): 90 % of control and 97 % of control

Compound: O=C(O)/C(Cl)=C(/Cl)C(Cl)=C(Cl)Cl
- T/C [1]: 96 % of control
- T/C [2]: 100 % of control
- T/C [3]: 95 % of control
- T/C [4]: 98 % of control
- T/C (dose: 100.0 mg/kg/injection, schedule: Q01DX009 (ip), vehicle: saline with Tween-80): 93 % of control
- T/C [5]: 91 % of control

Compound: C1=C(Nc2ccccc2)C(=Nc2ccccc2)C=C(Nc2ccccc2)C1=Nc1ccccc1
- T/C [2]: 96 % of control
- T/C [4]: 96 % of control
- T/C [5]: 98 % of control

Compound: CCCCCC(/C=N\N=C\c1ccco1)=C\c1ccccc1
- T/C [5]: 93 % of control
- T/C (dose: 200.0 mg/kg/injection, schedule: Q04DX003 (ip), vehicle: saline with Tween-80): 93 % of control
- T/C (dose: 400.0 mg/kg/injection, schedule: Q04DX003 (ip), vehicle: saline with Tween-80): 96 % of control

Compound: CCCCCCCCCCCCCCCC(=O)Nc1ccn(C2OC(CO)C(O)C2O)c(=O)n1 (stereo unspecified)
- T/C (dose: 12.5 mg/kg/injection, schedule: Q01DX009 (ip), vehicle: saline): 213 % of control and 268 % of control
- T/C (dose: 25.0 mg/kg/injection, schedule: Q01DX009 (ip), vehicle: saline): 189 % of control and 270 % of control
- T/C (dose: 50.0 mg/kg/injection, schedule: Q01DX009 (ip), vehicle: saline): 225 % of control and 307 % of control
- T/C (dose: 50.0 mg/kg/injection, schedule: Q04DX002 (ip), vehicle: saline): 331 % of control
- T/C (dose: 100.0 mg/kg/injection, schedule: Q04DX002 (ip), vehicle: saline): 344 % of control and 345 % of control
- T/C (dose: 200.0 mg/kg/injection, schedule: Q01DX009 (ip), vehicle: saline): 95 % of control
- T/C (dose: 200.0 mg/kg/injection, schedule: Q04DX002 (ip), vehicle: saline): 198 % of control

Compound: CCCCCCCCCCCCCCCCCC(=O)OCC(=O)OCC(=O)[C@]1(O)Cc2c(O)c3c(c(O)c2[C@@H](OC2CC(N)C(O)C(C)O2)C1)C(=O)c1c(OC)cccc1C3=O (stereo partly specified)
- T/C (dose: 0.37 mg/kg/injection, schedule: Q01DX009 (ip), vehicle: saline): 116 % of control
- T/C (dose: 0.39 mg/kg/injection, schedule: Q01DX005 (ip), vehicle: water): 122 % of control and 112 % of control
- T/C (dose: 0.75 mg/kg/injection, schedule: Q01DX009 (ip), vehicle: saline): 115 % of control
- T/C (dose: 0.78 mg/kg/injection, schedule: Q01DX005 (ip), vehicle: water): 118 % of control and 119 % of control
- T/C (dose: 1.5 mg/kg/injection, schedule: Q01DX009 (ip), vehicle: saline): 115 % of control
- T/C (dose: 3.13 mg/kg/injection, schedule: Q01DX005 (ip), vehicle: other): 152 % of control
- T/C (dose: 3.13 mg/kg/injection, schedule: Q01DX005 (ip), vehicle: water): 209 % of control
- T/C (dose: 6.25 mg/kg/injection, schedule: Q01DX005 (ip), vehicle: other): 156 % of control
- T/C (dose: 6.25 mg/kg/injection, schedule: Q01DX005 (ip), vehicle: water): 124 % of control
- T/C (dose: 12.0 mg/kg/injection, schedule: Q01DX009 (ip), vehicle: saline): 157 % of control
- T/C (dose: 12.5 mg/kg/injection, schedule: Q01DX005 (ip), vehicle: other): 90 % of control
